# Test results taken from PubChem BioAssay AID2060485 (Molecular Pharmacology Branch, DTP, NCI, 2025).
# Test system: A375 multi-cell spheroids with HUVEC/MSC, viability
# Assay: Anticancer human tumor A375 cell line growth inhibition [GQUAD];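 also: spheroids exposed to compounds for seven days before readout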
# Conditions: for IC50: curve of first compound; for viability, T/C: stronger effect = lower value
# Description: DNA G-quadruplex Stabilizer Agents in Combinations in Complex Spheroids
# A high-throughput screen of multi-cell type tumor spheroids was designed to identify active combinations of DNA G-quadruplex stabilizer agents and targeted small molecules. Complex spheroids include a stromal component modeled by human endothelial cells (HUVEC) and fibroblasts modeled by human mesenchymal stem cells (MSCs). The concentration ranges selected for each drug and investigational agent were based upon clinically achievable concentrations if the clinical Cmax of the agent was known.
# Compounds. The drugs and investigational agents: pidnarulex (CX-5461; NSC782164), APTO-253 (NSC789042), BRACO-19 (NSC847499), peposertib (NSC802822), ceralasertib (NSC780249), elimusertib (NSC800525), camonsertib (NSC841442), AZD-1390 (NSC803789), olaparib (NSC753686), talazoparib (NSC767125), ART-558 (NSC835418), sotorasib (NSC818433), MRTX-1133 (NSC836407), SN-38 (NSC673596), topotecan (NSC609699), etoposide (NSC141540), doxorubicin (NSC123127), gemcitabine (NSC613327), 5-fluorouracil (NSC19893), paclitaxel (NSC125973), vemurafenib (NSC761431), panobinostat (NSC761190), R-306465 (JNJ-16241199; NSC773264), adavosertib (NSC754352), TP-3654 (NSC805149), carboplatin (NSC241240), KSQ-4279 (NSC840948), and staurosporine (NSC755774) were obtained from the National Cancer Institute (NCI) Developmental Therapeutics Program Chemical Repository (34). The FDA-approved anticancer drug set is available from the NCI Developmental Therapeutics Program. […] The stock solutions were prepared in dimethyl sulfoxide (DMSO, Sigma-Aldrich, St. Louis, MO, cat. D2650) at 800-fold the tested concentration and stored at -70 degrees C prior to their use. All drugs and investigational agents were tested over a range starting from a high concentration at or near the clinical Cmax and decreasing in half-log increments. If the clinical Cmax for an agent had not been determined, the highest concentration tested was 10 microM.
# 2.3 Cell Culture. All cells were maintained in an incubator at 37 degrees C and 5% CO2 with 95% humidity. The PDC lines were cultured according to standard operating procedures established by the NCI PDMR. All PDCs were thawed and cultured in Matrigel-coated flasks prepared with a working solution of 1X Ham's F-12 nutrient mix, without supplementation (Invitrogen, cat. 11765054), 100 U/mL penicillin-streptomycin (Invitrogen, cat. 15140122), and 2.5% Matrigel (Corning Inc., cat. 354248) for the first three passages. The 857933-349-R-J2-PDC line was cultured in 6C/Colon 1B media, which includes advanced DMEM/F-12 (Thermo Fisher Scientific, cat. 12634028), 10 mM HEPES (Thermo Fisher Scientific, cat. 15630080), 1X GlutaMAX supplement (Thermo Fisher Scientific, cat. 35050061), 0.1 mg/mL primocin (InvivoGen, cat. ant-pm-2), 10% defined fetal bovine serum, heat inactivated (HyClone Laboratories Inc., cat. SH30070.03HI), 50% L-WRN conditioned media (ATCC, cat. CRL-3276), 1.25 mM N-Acetyl-L-cysteine (Sigma-Aldrich, cat. A9165), 10 mM nicotinamide (Sigma-Aldrich, cat. N0636), 1X B-27 supplement (Thermo Fisher Scientific, cat. 17504044), 1X N-2 supplement (Thermo Fisher Scientific, cat. 17502048), 10 microM Y-27632 dihydrochloride (Tocris Bioscience, cat. 1254), and 50 ng/mL human EGF recombinant protein (Thermo Fisher Scientific, cat. PHG0311). The 485176-168-R4-J1-PDC line was cultured in Panc media, which includes all 6C/Colon 1B media components plus 100 ng/mL human FGF-10 (Thermo Fisher Scientific, cat. 100-26), 500 nM SB-431542 (Selleckchem, cat. S1067), and gastrin (Tocris, cat. 3006).
# […]
# [1] = second compound 0.0316 µM, first compound 0.0316 µM
# [2] = second compound 0.0316 µM, first compound 0.316 µM
# [3] = second compound 0.1 µM, first compound 0.0316 µM
# [4] = second compound 0.1 µM, first compound 0.316 µM
# [5] = second compound 0.316 µM, first compound 0.0316 µM
# [6] = second compound 0.316 µM, first compound 0.316 µM
# [7] = second compound 1 µM, first compound 0.0316 µM
# [8] = second compound 1 µM, first compound 0.316 µM
# [9] = second compound 3.16 µM, first compound 0.0316 µM
# [10] = second compound 3.16 µM, first compound 0.316 µM
# [11] = second compound 10 µM, first compound 0.0316 µM
# [12] = second compound 10 µM, first compound 0.316 µM
smiles,measurement,setting,value
C=CC(=O)N1CCN(c2nc(=O)n(-c3c(C)ccnc3C(C)C)c3nc(-c4c(O)cccc4F)c(F)cc23)C(C)C1 (centres undefined) + CN(C)c1ccc(Nc2c3ccc(NC(=O)CCN4CCCC4)cc3nc3cc(NC(=O)CCN4CCCC4)ccc23)cc1,IC50,second compound 0.0316 µM,> 10000 nM
same,IC50,second compound 0.1 µM,> 10000 nM
same,IC50,second compound 0.316 µM,> 10000 nM
same,IC50,second compound 1 µM,> 10000 nM
same,IC50,second compound 3.16 µM,> 10000 nM
same,IC50,second compound 10 µM,> 10000 nM
same,"viability, T/C",[1],107%
same,"viability, T/C","second compound 0.0316 µM, first compound 0.1 µM",95.4%
same,"viability, T/C",[2],94.9%
same,"viability, T/C","second compound 0.0316 µM, first compound 1 µM",95.1%
same,"viability, T/C","second compound 0.0316 µM, first compound 3.16 µM",110%
same,"viability, T/C","second compound 0.0316 µM, first compound 10 µM",123%
same,"viability, T/C",[3],108%
same,"viability, T/C","second compound 0.1 µM, first compound 0.1 µM",96.8%
same,"viability, T/C",[4],103%
same,"viability, T/C","second compound 0.1 µM, first compound 1 µM",95.4%
same,"viability, T/C","second compound 0.1 µM, first compound 3.16 µM",98.6%
same,"viability, T/C","second compound 0.1 µM, first compound 10 µM",119%
same,"viability, T/C",[5],95.1%
same,"viability, T/C","second compound 0.316 µM, first compound 0.1 µM",94.7%
same,"viability, T/C",[6],90.6%
same,"viability, T/C","second compound 0.316 µM, first compound 1 µM",101%
same,"viability, T/C","second compound 0.316 µM, first compound 3.16 µM",101%
same,"viability, T/C","second compound 0.316 µM, first compound 10 µM",128%
same,"viability, T/C",[7],97.7%
same,"viability, T/C","second compound 1 µM, first compound 0.1 µM",92.2%
same,"viability, T/C",[8],94.8%
same,"viability, T/C","second compound 1 µM, first compound 1 µM",102%
same,"viability, T/C","second compound 1 µM, first compound 3.16 µM",109%
same,"viability, T/C","second compound 1 µM, first compound 10 µM",133%
same,"viability, T/C",[9],98.7%
same,"viability, T/C","second compound 3.16 µM, first compound 0.1 µM",90.7%
same,"viability, T/C",[10],92.3%
same,"viability, T/C","second compound 3.16 µM, first compound 1 µM",93.4%
same,"viability, T/C","second compound 3.16 µM, first compound 3.16 µM",103%
same,"viability, T/C","second compound 3.16 µM, first compound 10 µM",126%
same,"viability, T/C",[11],99.9%
same,"viability, T/C","second compound 10 µM, first compound 0.1 µM",92.2%
same,"viability, T/C",[12],99.8%
same,"viability, T/C","second compound 10 µM, first compound 1 µM",100%
same,"viability, T/C","second compound 10 µM, first compound 3.16 µM",108%
same,"viability, T/C","second compound 10 µM, first compound 10 µM",107%
CC[C@@]1(O)C(=O)OCc2c1cc1n(c2=O)Cc2cc3c(CN(C)C)c(O)ccc3nc2-1 + CN(C)c1ccc(Nc2c3ccc(NC(=O)CCN4CCCC4)cc3nc3cc(NC(=O)CCN4CCCC4)ccc23)cc1,IC50,second compound 0.0316 µM,44.7 nM
same,IC50,second compound 0.1 µM,45.3 nM
same,IC50,second compound 0.316 µM,39.6 nM
same,IC50,second compound 1 µM,47.4 nM
same,IC50,second compound 3.16 µM,49.5 nM
same,IC50,second compound 10 µM,45.9 nM
same,"viability, T/C","second compound 0.0316 µM, first compound 0.000999 µM",104%
same,"viability, T/C","second compound 0.0316 µM, first compound 0.00316 µM",107%
same,"viability, T/C","second compound 0.0316 µM, first compound 0.00999 µM",104%
same,"viability, T/C",[1],63.4%
same,"viability, T/C","second compound 0.0316 µM, first compound 0.0999 µM",18.5%
same,"viability, T/C",[2],9.04%
same,"viability, T/C","second compound 0.1 µM, first compound 0.000999 µM",112%
same,"viability, T/C","second compound 0.1 µM, first compound 0.00316 µM",105%
same,"viability, T/C","second compound 0.1 µM, first compound 0.00999 µM",96.2%
same,"viability, T/C",[3],64.2%
same,"viability, T/C","second compound 0.1 µM, first compound 0.0999 µM",20.4%
same,"viability, T/C",[4],10.9%
same,"viability, T/C","second compound 0.316 µM, first compound 0.000999 µM",101%
same,"viability, T/C","second compound 0.316 µM, first compound 0.00316 µM",107%
same,"viability, T/C","second compound 0.316 µM, first compound 0.00999 µM",108%
same,"viability, T/C",[5],58%
same,"viability, T/C","second compound 0.316 µM, first compound 0.0999 µM",19.8%
same,"viability, T/C",[6],10.9%
same,"viability, T/C","second compound 1 µM, first compound 0.000999 µM",114%
same,"viability, T/C","second compound 1 µM, first compound 0.00316 µM",106%
same,"viability, T/C","second compound 1 µM, first compound 0.00999 µM",102%
same,"viability, T/C",[7],67%
same,"viability, T/C","second compound 1 µM, first compound 0.0999 µM",18.9%
same,"viability, T/C",[8],9.06%
same,"viability, T/C","second compound 3.16 µM, first compound 0.000999 µM",103%
same,"viability, T/C","second compound 3.16 µM, first compound 0.00316 µM",102%
same,"viability, T/C","second compound 3.16 µM, first compound 0.00999 µM",102%
same,"viability, T/C",[9],68.8%
same,"viability, T/C","second compound 3.16 µM, first compound 0.0999 µM",20.6%
same,"viability, T/C",[10],12.7%
same,"viability, T/C","second compound 10 µM, first compound 0.000999 µM",102%
same,"viability, T/C","second compound 10 µM, first compound 0.00316 µM",103%
same,"viability, T/C","second compound 10 µM, first compound 0.00999 µM",107%
same,"viability, T/C",[11],63.2%
same,"viability, T/C","second compound 10 µM, first compound 0.0999 µM",22.4%
same,"viability, T/C",[12],9.58%
